Read-outs that look alike come from different tables or passages of the source.
Columns and labels:
[1] = Plasma pharmacokinetics of vinorelbine and deacetylvinorelbine after oral vinorelbine in CES2-modified mice; type: in vivo, mouse; conditions: mouse, plasma, oral vinorelbine 10 mg/kg, plasma; for AUC(0-t): male, po, 10 mg/kg, read-out: AUC0-4h; for Cmax: read-out: Cmax; for Tmax: read-out: Tmax
Experimental: (§1) For capecitabine 2-h experiments, 6–7 female mice received oral capecitabine (500 mg/kg, 10 μL/g), and tail vein blood samples were collected at 0.125, 0.25, 0.5 and 1 h after drug administration. For the vinorelbine 4-h experiment, 6-7 male mice received vinorelbine intravenously (10 mg/kg, 5 μL/g) or orally (10 mg/kg, 10 μL/g) using a blunt-ended needle. Tail vein blood samples were collected at 0.125, 0.25, 0.5, 1 and 2 h after drug administration. […] At the last time point in each experiment (2 or 4 h), mice were anesthetized with 5% isoflurane and blood was collected by cardiac puncture. […] Plasma was isolated from the blood by centrifugation at 9000 × g for 6 min at 4 °C, and the plasma fraction was collected and stored at −30 °C until analysis.
(§2) Concentrations of capecitabine (and its metabolites) and vinorelbine (and its metabolite) in mouse plasma samples and organ homogenates were determined using two independent validated high-performance liquid chromatography-tandem mass spectrometry assays.
(§3) Pharmacokinetic parameters were calculated by non-compartmental methods using the PK solver software. […] Differences were considered statistically significant when P < 0.05. All data are presented as mean ± SD.

[2] = Plasma pharmacokinetics of vinorelbine and deacetylvinorelbine after i.v. vinorelbine in CES2-modified mice; conditions: male, mouse, plasma, iv, 10 mg/kg, AUC0-4h, i.v. vinorelbine 10 mg/kg
Experimental: In order to minimize variation among individuals, mice were fasted for 3 h before drug was administered orally or intravenously. […] For the vinorelbine 4-h experiment, 6-7 male mice received vinorelbine intravenously (10 mg/kg, 5 μL/g) or orally (10 mg/kg, 10 μL/g) using a blunt-ended needle. […] Time points of termination were chosen to allow both reasonable assessment of the plasma exposure of the compound and its main metabolites, and adequate measurement of tissue concentrations. In order to minimize the generation and use of mice, and as no pronounced sex differences were expected, female mice were used for the capecitabine studies and male mice for the vinorelbine studies. Tail vein blood sample collection (~50 μL) was performed using microvettes containing dipotassium-EDTA. All blood samples were rapidly placed on ice to limit any ongoing hydrolysis. At the last time point in each experiment (2 or 4 h), mice were anesthetized with 5% isoflurane and blood was collected by cardiac puncture. Cardiac puncture blood samples (600–800 μL) were collected in Eppendorf tubes containing heparin as an anticoagulant. The mice were then sacrificed by cervical dislocation and brain, liver, kidney, lung, small intestine and testis were rapidly removed. Plasma was isolated from the blood by centrifugation at 9000 × g for 6 min at 4 °C, and the plasma fraction was collected and stored at −30 °C until analysis. Organs were homogenized with 4% (w/v) bovine serum albumin and stored at −30 °C until analysis. Relative metabolite-to-parental drug ratio after drug administration was calculated by determining metabolite tissue concentration relative to corresponding parental drug concentration at the last time point.
as §2
Pharmacokinetic parameters were calculated by non-compartmental methods using the PK solver software. The area under the plasma concentration-time curve (AUC) was calculated using the trapezoidal rule, without extrapolating to infinity. The peak plasma concentration (Cmax) and the time of maximum plasma concentration (Tmax) were estimated from the original (individual mouse) data. One-way analysis of variance (ANOVA) was used when multiple groups were compared and the Tukey’s test post hoc correction was used to accommodate multiple testing. The two-sided unpaired Student’s t-test was used when treatments or differences between two specific groups were compared. Kruskal-Wallis rank test was used for semi-quantitative assessment for (H&E)-staining of white adipose tissue and Oil Red O-staining of liver. All statistical analyses were performed using the software GraphPad Prism 8 (GraphPad Software Inc., La Jolla, CA, USA). All the linear data were log-transformed before statistical tests were applied. Differences were considered statistically significant when P < 0.05. All data are presented as mean ± SD.

[3] = Tissue concentrations of vinorelbine and deacetylvinorelbine 4 h after oral vinorelbine in CES2-modified mice; type: in vivo, mouse; conditions: male, mouse, oral, 10 mg/kg, oral vinorelbine 10 mg/kg
Experimental: as §1, §2, §3

[4] = Tissue concentrations of vinorelbine and deacetylvinorelbine 4 h after i.v. vinorelbine in CES2-modified mice; type: in vivo, mouse; conditions: male, mouse, intravenous, 10 mg/kg, i.v. vinorelbine 10 mg/kg
Experimental: as §1, §2, §3

[5] = parameters: method as in PMID 11822766; conditions: 24 patients; oral vinorelbine 80 mg/m^2; cited from earlier work
[6] = colon, male Ces2^–/– mice, read-out: Ccolon (colon concentration)
[7] = colon, male Ces2^–/–A mice, read-out: Ccolon (colon concentration)
[8] = colon, male Ces2^–/–V mice, read-out: Ccolon (colon concentration)
[9] = colon, male wild-type mice, read-out: Ccolon (colon concentration)
[10] = liver, male Ces2^–/– mice, read-out: Cliver (liver concentration)
[11] = liver, male Ces2^–/–A mice, read-out: Cliver (liver concentration)
[12] = liver, male Ces2^–/–V mice, read-out: Cliver (liver concentration)
[13] = liver, male wild-type mice, read-out: Cliver (liver concentration)
[14] = small intestine contents, male Ces2^–/– mice, read-out: CSIC (small intestine contents concentration)
[15] = small intestine contents, male Ces2^–/–A mice, read-out: CSIC (small intestine contents concentration)
[16] = small intestine contents, male Ces2^–/–V mice, read-out: CSIC (small intestine contents concentration)
[17] = small intestine contents, male wild-type mice, read-out: CSIC (small intestine contents concentration)
[18] = small intestine tissue, male Ces2^–/– mice, read-out: CSI (small intestine tissue concentration)
[19] = small intestine tissue, male Ces2^–/–A mice, read-out: CSI (small intestine tissue concentration)
[20] = small intestine tissue, male Ces2^–/–V mice, read-out: CSI (small intestine tissue concentration)
[21] = small intestine tissue, male wild-type mice, read-out: CSI (small intestine tissue concentration)

AUC(0-t) ([1]; male Ces2^–/– mice): 491 ± 135 ng·h/mL
AUC(0-t) ([1]; male Ces2^–/–A mice): 730 ± 270 ng·h/mL
AUC(0-t) ([1]; male Ces2^–/–V mice): 585 ± 186 ng·h/mL
AUC(0-t) ([1]; male wild-type mice): 362 ± 81 ng·h/mL
Cmax ([1]; male Ces2^–/– mice): 188 ± 63 ng/mL
Tmax ([1]; male Ces2^–/– mice): 1.9 ± 1.9 h
Cmax ([1]; male Ces2^–/–A mice): 333 ± 99 ng/mL
Tmax ([1]; male Ces2^–/–A mice): 1.3 ± 0.9 h
Cmax ([1]; male Ces2^–/–V mice): 243 ± 110 ng/mL
Tmax ([1]; male Ces2^–/–V mice): 2.4 ± 1.5 h
Cmax ([1]; male wild-type mice): 149 ± 59 ng/mL
Tmax ([1]; male wild-type mice): 1.7 ± 0.7 h
AUC(0-t) ([2]; male Ces2^–/– mice): 6040 ± 1950 ng·h/mL
AUC(0-t) ([2]; male Ces2^–/–A mice): 5950 ± 3250 ng·h/mL
AUC(0-t) ([2]; male Ces2^–/–V mice): 9790 ± 5670 ng·h/mL
AUC(0-t) ([2]; male wild-type mice): 8140 ± 4780 ng·h/mL
concentration at 4 h [3, 6]: 581 ± 175 ng/g
concentration at 4 h [3, 7]: 788 ± 189 ng/g
concentration at 4 h [3, 8]: 608 ± 203 ng/g
concentration at 4 h [3, 9]: 348 ± 136 ng/g
concentration at 4 h [3, 10]: 8470 ± 8150 ng/g
concentration at 4 h [3, 11]: 8520 ± 3440 ng/g
concentration at 4 h [3, 12]: 8300 ± 2000 ng/g
concentration at 4 h [3, 13]: 1530 ± 409 ng/g
concentration at 4 h [3, 14]: 159000 ± 46700 ng/g
concentration at 4 h [3, 15]: 177000 ± 73000 ng/g
concentration at 4 h [3, 16]: 114000 ± 19400 ng/g
concentration at 4 h [3, 17]: 77000 ± 29300 ng/g
concentration at 4 h [3, 18]: 18300 ± 4300 ng/g
concentration at 4 h [3, 19]: 18100 ± 3650 ng/g
concentration at 4 h [3, 20]: 15600 ± 6980 ng/g
concentration at 4 h [3, 21]: 10800 ± 3700 ng/g
concentration at 4 h [4, 6]: 5620 ± 3000 ng/g
concentration at 4 h [4, 7]: 5780 ± 3090 ng/g
concentration at 4 h [4, 8]: 6740 ± 1470 ng/g
concentration at 4 h [4, 9]: 2360 ± 692 ng/g
concentration at 4 h [4, 10]: 23400 ± 6110 ng/g
concentration at 4 h [4, 11]: 24300 ± 3720 ng/g
concentration at 4 h [4, 12]: 24700 ± 4450 ng/g
concentration at 4 h [4, 13]: 12200 ± 4960 ng/g
concentration at 4 h [4, 14]: 40100 ± 25500 ng/g
concentration at 4 h [4, 15]: 47200 ± 30900 ng/g
concentration at 4 h [4, 16]: 48400 ± 27000 ng/g
concentration at 4 h [4, 17]: 27700 ± 13400 ng/g
concentration at 4 h [4, 18]: 5920 ± 1350 ng/g
concentration at 4 h [4, 19]: 5600 ± 644 ng/g
concentration at 4 h [4, 20]: 7680 ± 2240 ng/g
concentration at 4 h [4, 21]: 3470 ± 858 ng/g
Compound: CCC1=C[C@@H]2CN(C1)Cc1c([nH]c3ccccc13)[C@@](C(=O)OC)(c1cc3c(cc1OC)N(C)[C@H]1[C@@](O)(C(=O)OC)[C@H](OC(C)=O)[C@]4(CC)C=CCN5CC[C@]31[C@@H]54)C2 [Vinorelbine, reference compound]
plasma Cmax [5]: 133.4 ± 42.3 ng/mL

Source: publication PMC11845761, “Intestinal human carboxylesterase 2 (CES2) expression rescues drug metabolism and most metabolic syndrome phenotypes in global Ces2 cluster knockout mice” (Acta Pharmacologica Sinica, 2024)
